Data on twelve compounds can be found in ChEMBL document CHEMBL4428064, “Discovery and antiparasitic activity of AZ960 as a Trypanosoma brucei ERK8 inhibitor” (Bioorg Med Chem, 2016).

The test system of data set [1] is Trypanosoma brucei. As to the kind of experiment: Antiparasitic activity against bloodstream form of Trypanosoma brucei 221 infected in mouse VSMC assessed as reduction in log10 RLU at 1 uM after 48 hrs by luciferase reporter gene assay. Type of data set: functional.
Data set [2] has as its system Trypanosoma brucei. As to the kind of experiment: Antiparasitic activity against bloodstream form of Trypanosoma brucei 221 infected in mouse VSMC assessed as parasitic proliferation at 1 uM after 48 hrs by luciferase reporter gene assay. Format: functional. (Reporter assays use an easily measured gene product as a stand-in for the process of interest.)
Data set [3] concerns Trypanosoma brucei. As to the kind of experiment: Antiparasitic activity against bloodstream form of Trypanosoma brucei 221 infected in mouse VSMC assessed as reduction in parasitic proliferation after 48 hrs by cell titer-glo based assay. Format: functional, organism-based. The conditions noted are these: Trypanosoma brucei, 221, VSMC. In general terms: Cellular ATP, detected with luciferase, serves as a proxy for viable cell number.

In data set [4] the target is Tyrosine-protein kinase JAK2 (Homo sapiens, UniProt O60674, V617F). As to the kind of experiment: Inhibition of JAK2 V617F mutant (unknown origin) using L-Ahx-IPTSPITTTYFFFKKK-COOH as substrate in presence of ATP.
The test system of data set [5] is Trypanosoma brucei. As to the kind of experiment: Inhibition of GST-tagged Trypanosoma brucei ERK8 autophosphorylation expressed in Escherichia coli using myelin basic protein as substrate after 30 mins in presence of 32P-gamma-ATP by SDS-PAGE based autoradiography.
The nature of data set [6]: Inhibition of GST-tagged Trypanosoma brucei ERK8 expressed in Escherichia coli using recombinant myelin basic protein as substrate after 30 mins in presence of 32P-gamma-ATP by Michaelis-Menten analysis.
Data set [7] can be described thus: Selectivity ratio of IC50 for mouse vSMC to IC50 for bloodstream form of Trypanosoma brucei 221. Format: toxicity. The settings on record: read-out: Ratio IC50.
A short description of data set [8]: Selectivity ratio of IC50 for rat ins-1 cells to IC50 for bloodstream form of Trypanosoma brucei 221. Format: toxicity. The conditions noted are these: read-out: Ratio IC50.
Data set [9] can be described thus: Cytotoxicity against mouse VSMC assessed as cell growth inhibition.
Another data set relates to INS1. As to the kind of experiment: Cytotoxicity against rat INS-1 cells assessed as cell growth inhibition. Type of data set: cell-based.

Tyrosine-protein kinase JAK2, sequence (O60674 whole entry V617F): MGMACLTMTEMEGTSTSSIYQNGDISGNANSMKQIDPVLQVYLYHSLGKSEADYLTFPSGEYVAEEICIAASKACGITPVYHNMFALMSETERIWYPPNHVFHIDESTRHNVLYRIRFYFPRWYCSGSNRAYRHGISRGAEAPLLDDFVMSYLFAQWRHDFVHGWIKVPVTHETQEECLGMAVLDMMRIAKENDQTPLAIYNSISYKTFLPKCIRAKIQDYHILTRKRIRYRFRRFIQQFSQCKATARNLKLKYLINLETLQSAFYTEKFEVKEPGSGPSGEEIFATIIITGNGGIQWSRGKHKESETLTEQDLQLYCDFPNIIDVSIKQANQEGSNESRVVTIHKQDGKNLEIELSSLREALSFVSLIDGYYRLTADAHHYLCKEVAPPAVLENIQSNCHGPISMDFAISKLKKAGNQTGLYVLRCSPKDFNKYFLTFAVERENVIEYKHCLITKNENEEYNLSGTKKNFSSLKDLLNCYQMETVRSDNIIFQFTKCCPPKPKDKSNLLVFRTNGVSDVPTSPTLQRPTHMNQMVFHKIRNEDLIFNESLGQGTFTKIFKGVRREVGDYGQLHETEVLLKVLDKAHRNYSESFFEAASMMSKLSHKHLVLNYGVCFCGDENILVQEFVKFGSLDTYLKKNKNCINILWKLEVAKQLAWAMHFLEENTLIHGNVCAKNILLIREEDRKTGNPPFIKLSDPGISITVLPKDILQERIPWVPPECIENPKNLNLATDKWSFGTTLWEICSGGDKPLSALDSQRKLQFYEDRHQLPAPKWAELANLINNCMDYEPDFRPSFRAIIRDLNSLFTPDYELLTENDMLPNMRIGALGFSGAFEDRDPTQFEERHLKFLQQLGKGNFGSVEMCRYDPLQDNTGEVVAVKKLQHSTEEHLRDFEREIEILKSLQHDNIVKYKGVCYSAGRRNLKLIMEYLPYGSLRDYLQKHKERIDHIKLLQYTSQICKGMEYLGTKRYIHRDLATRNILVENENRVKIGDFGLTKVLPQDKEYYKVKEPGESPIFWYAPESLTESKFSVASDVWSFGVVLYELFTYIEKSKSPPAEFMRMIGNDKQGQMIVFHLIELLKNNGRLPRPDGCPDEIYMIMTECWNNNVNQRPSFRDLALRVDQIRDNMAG

On to `Nc1ccc(-c2ccc3ncc4ccc(=O)n(-c5cccc(C(F)(F)F)c5)c4c3c2)cn1`, for which the “reduction in log10 RLU” value in the data set with Trypanosoma brucei [1] was found to be 2. The Activity in the data set on Trypanosoma brucei [2] was determined as 0.6%. Moreover, the IC50 with Trypanosoma brucei [3] stood at 1000 nM.
As for `Cc1cc(Nc2nc(N[C@@H](C)c3ccc(F)cc3)c(C#N)cc2F)n[nH]1`, the “reduction in log10 RLU” value in the data set with Trypanosoma brucei [1] was found to be 2. Besides, the Activity in the data set on Trypanosoma brucei [2] is given as 0.26%. The 50% inhibitory concentration (IC50) in the data set with Trypanosoma brucei [3] stood at 120 nM; in data set [9] (Mus musculus, VSMC), 25000 nM; in the data set on INS1 (Rattus norvegicus, INS1), 10000 nM. In addition, the figures for the Ki in data set [4] and in data set [6] were 0.45 nM and 1250 nM, respectively. Moreover, in the data set with Trypanosoma brucei [5], the inhibition was less than 20%. Besides, the selectivity ratio in data set [7] was in the range of 208 to 210; in data set [8] it was 83 to 84. In addition, the “inhibition (INH)” value in data set [9] (mouse) is on record as “Dose-dependent effect”; in the data set on INS1 (rat, ins1), “Dose-dependent effect”.
As to `O=C1c2ccccc2-c2n[nH]c3cccc1c23`, the “reduction in log10 RLU” value with Trypanosoma brucei [1] turned out to be 2. Besides, the Activity in the data set with Trypanosoma brucei [2] is given as 0.26%. Further, the IC50 with Trypanosoma brucei [3] was 570 nM.
On to `Cc1ncc(-c2ccnc(Nc3ccc(S(C)(=O)=O)cc3)n2)n1C(C)C` [AZD-5438], for which the “reduction in log10 RLU” value in the data set on Trypanosoma brucei [1] is reported as 2. In addition, the Activity in the data set with Trypanosoma brucei [2] was 0.45%. The IC50 with Trypanosoma brucei [3] turned out to be 210 nM. For the same compound, in the data set on Trypanosoma brucei [5], the inhibition was less than 20%.
Regarding `COc1ccc(-c2ccc3ncc4c(c3c2)n(-c2ccc(N3CCNCC3)c(C(F)(F)F)c2)c(=O)n4C)cn1` [BGT-226 FREE BASE], in the data set on Trypanosoma brucei [1], the “reduction in log10 RLU” value came to 2. For the same compound, the Activity in the data set on Trypanosoma brucei [2] was found to be 0.12%. Moreover, in the data set on Trypanosoma brucei [3], the half-maximal inhibitory concentration (IC50) is 950 nM.
Turning to `CC(C)(C)c1cnc(CSc2cnc(NC(=O)C3CCNCC3)s2)o1` [BMS-387032], the “reduction in log10 RLU” value with Trypanosoma brucei [1] came out at 2. In addition, the Activity in the data set with Trypanosoma brucei [2] was found to be 0.36%. Besides, the IC50 with Trypanosoma brucei [3] was 120 nM.
With `Cn1c(=O)n(-c2ccc(C(C)(C)C#N)cc2)c2c3cc(-c4cnc5ccccc5c4)ccc3ncc21` [DACTOLISIB], the “reduction in log10 RLU” value with Trypanosoma brucei [1] is 2. Moreover, the Activity in the data set on Trypanosoma brucei [2] turned out to be 0.49%.
As for `CCc1cnn2c(NCc3ccc[n+]([O-])c3)cc(N3CCCC[C@H]3CCO)nc12` [DINACICLIB], the “reduction in log10 RLU” value in the data set on Trypanosoma brucei [1] came out at 2. In addition, in the data set with Trypanosoma brucei [2], the Activity is 1.13%. Further, in the data set with Trypanosoma brucei [3], the half-inhibitory concentration (IC50) was 80 nM.
For `CCS(=O)(=O)Nc1ccc2c(c1)/C(=C(/Nc1ccc(CN3CCCCC3)cc1)c1ccccc1)C(=O)N2` [HESPERADIN], in the data set on Trypanosoma brucei [1], the “reduction in log10 RLU” value turned out to be 2. Moreover, the Activity with Trypanosoma brucei [2] came out at 0.27%.
Regarding `CNC(=O)c1nn(C)c2c1C(C)(C)Cc1cnc(Nc3ccc(N4CCN(C)CC4)cc3)nc1-2` [MILCICLIB], in the data set on Trypanosoma brucei [1], the “reduction in log10 RLU” value is 2. For the same compound, the Activity in the data set with Trypanosoma brucei [2] is reported as 0.58%. For the same compound, the half-inhibitory concentration (IC50) in the data set on Trypanosoma brucei [3] was found to be 610 nM. Moreover, the inhibition with Trypanosoma brucei [5] is less than 20%.
Take `COc1ncc(-c2ccc3nccc(-c4ccnnc4)c3c2)cc1NS(=O)(=O)c1ccc(F)cc1F` [OMIPALISIB]: in the data set with Trypanosoma brucei [1], the “reduction in log10 RLU” value stood at 2. The Activity in the data set with Trypanosoma brucei [2] is recorded as 0.21%. For the same compound, in the data set on Trypanosoma brucei [3], the concentration for half-maximal inhibition (IC50) came to 111 nM.
As to `CC(=O)NCC(=O)N1[C@@H]2CC[C@H]1c1ccc(Nc3ncc(C(F)(F)F)c(NC4CCC4)n3)cc12` [PF-03814735], in the data set with Trypanosoma brucei [1], the “reduction in log10 RLU” value was found to be 2. In addition, the Activity in the data set on Trypanosoma brucei [2] is listed as 1.16%. Further, the IC50 in the data set with Trypanosoma brucei [3] is 260 nM. In addition, the inhibition with Trypanosoma brucei [5] was less than 20%.

One may read the IC50 as the midpoint of a concentration-inhibition curve. What is called Ki is a dissociation constant, usually derived from enzyme kinetics or from competition with a known ligand. In general, inhibition refers to the share of the control response that was lost under treatment.
